# Measured values reported in ChEMBL document CHEMBL1201862, “PubChem BioAssay data set” (2004).
# The source made the active and inactive calls.
# What was measured:
# [1] = target: Envelope glycoprotein gp160 (Human immunodeficiency virus 1, UniProt Q6QLK5); assay: cell-free HIV fusion peptide-binding blockers – biochemical, uHTS, fluorescence dequenching, […] (AID 1986)
# [2] = target: Induced myeloid leukemia cell differentiation protein Mcl-1 (Homo sapiens, UniProt Q07820); assay type: functional
# Chain of Induced myeloid leukemia cell differentiation protein Mcl-1 (Q07820 whole entry): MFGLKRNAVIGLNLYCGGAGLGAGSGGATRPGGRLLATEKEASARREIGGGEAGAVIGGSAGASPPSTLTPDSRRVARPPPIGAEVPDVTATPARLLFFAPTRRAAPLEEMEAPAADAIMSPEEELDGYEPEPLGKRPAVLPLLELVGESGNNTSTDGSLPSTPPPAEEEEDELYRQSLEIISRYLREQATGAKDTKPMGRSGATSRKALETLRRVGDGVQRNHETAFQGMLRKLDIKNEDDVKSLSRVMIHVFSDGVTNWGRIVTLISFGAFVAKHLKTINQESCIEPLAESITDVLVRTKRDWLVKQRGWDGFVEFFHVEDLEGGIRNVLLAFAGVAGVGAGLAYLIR
# [3] = viability loss in THP-1 monocytes – THP-1 cells, cytotoxicity control for Vif-APOBEC3G degradation inhibitor project, dose response (AID 1117359); assay type: functional; conditions: THP-1
# [4] = target: Cyclin-dependent kinase 5/CDK5 activator 1 (Homo sapiens, UniProt Q00535); assay: blockade of human CDK5 activity – biochemical, cherry-picked samples, set 2, dose response (AID 504545)
# Galanin receptor type 3 = target: T1, Galanin receptor type 3 (Homo sapiens, UniProt O60755); assay: Fluorescence-based cell-based primary high throughput dose response assay to identify antagonists of the Galanin Receptor 3 (GalR3).; assay type: functional
# T1 sequence (O60755 whole entry): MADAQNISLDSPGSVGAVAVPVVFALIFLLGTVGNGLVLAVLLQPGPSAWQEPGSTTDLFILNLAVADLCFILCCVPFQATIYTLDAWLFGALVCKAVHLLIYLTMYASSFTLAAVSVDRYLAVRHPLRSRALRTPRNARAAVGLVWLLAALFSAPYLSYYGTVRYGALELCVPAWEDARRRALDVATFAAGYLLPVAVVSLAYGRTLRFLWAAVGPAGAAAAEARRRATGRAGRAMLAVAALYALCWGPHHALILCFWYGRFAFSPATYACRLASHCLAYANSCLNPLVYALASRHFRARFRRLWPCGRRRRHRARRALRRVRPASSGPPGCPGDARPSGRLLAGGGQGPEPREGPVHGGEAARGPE
# cells = assay type: functional, cell-based; conditions: HEK-CNG
# [5] = target: T2, Neuropeptide Y receptor type 2 (Homo sapiens, UniProt P49146); assay: Fluorescence-based cell-based high-throughput dose response assay for agonists of NPY-Y2. [Related pubchem assays: 1703 (Screening assay (CNGC inhibitors).), 1359 (Screening assay (NPY-Y2 potentiators or agonists).), 1304 (Screening assay (NPY-Y1 potentiators or agonists).), 1710 (Screening assay (NPY-Y2 agonists).), 1791 (Summary AID.)]; assay type: functional
# T2 sequence (P49146 whole entry): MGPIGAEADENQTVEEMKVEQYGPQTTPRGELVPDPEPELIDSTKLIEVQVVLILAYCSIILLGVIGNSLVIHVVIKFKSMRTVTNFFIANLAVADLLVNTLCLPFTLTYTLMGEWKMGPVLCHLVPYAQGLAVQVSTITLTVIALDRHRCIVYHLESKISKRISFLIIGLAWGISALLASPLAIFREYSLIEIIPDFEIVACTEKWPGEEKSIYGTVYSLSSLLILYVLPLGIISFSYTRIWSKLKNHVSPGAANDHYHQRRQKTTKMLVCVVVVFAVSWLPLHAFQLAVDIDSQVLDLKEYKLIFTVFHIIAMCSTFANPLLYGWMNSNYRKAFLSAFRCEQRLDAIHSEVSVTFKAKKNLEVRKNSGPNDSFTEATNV
# HEK293 = assay: Fluorescence-based counterscreen for potentiators or agonists of NPY-Y2: cell-based high-throughput dose response assay to identify inhibitors of cyclic nucleotide gated ion channel (CNGC) activity. In this assay, the parental HEK293 cell line transfected with a cyclic-nucleotide gated ion channel (CNGC)-based cAMP sensor is used to measure inhibition of isoproterenol-induced CNGC activity by test compound.; assay type: functional; conditions: Homo sapiens;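 also: stimulus is 1 µM isoproterenol at EC100 plus PDE inhibitor Ro 20-1724 at 25 µM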
# [6] = target: T3, Neuropeptide Y receptor type 1 (Homo sapiens, UniProt P25929); assay: Fluorescence-based counterscreen for agonists of NPY-Y2: cell-based high-throughput dose response assay for agonists of NPY-Y1.; assay type: functional
# T3 sequence (P25929 whole entry): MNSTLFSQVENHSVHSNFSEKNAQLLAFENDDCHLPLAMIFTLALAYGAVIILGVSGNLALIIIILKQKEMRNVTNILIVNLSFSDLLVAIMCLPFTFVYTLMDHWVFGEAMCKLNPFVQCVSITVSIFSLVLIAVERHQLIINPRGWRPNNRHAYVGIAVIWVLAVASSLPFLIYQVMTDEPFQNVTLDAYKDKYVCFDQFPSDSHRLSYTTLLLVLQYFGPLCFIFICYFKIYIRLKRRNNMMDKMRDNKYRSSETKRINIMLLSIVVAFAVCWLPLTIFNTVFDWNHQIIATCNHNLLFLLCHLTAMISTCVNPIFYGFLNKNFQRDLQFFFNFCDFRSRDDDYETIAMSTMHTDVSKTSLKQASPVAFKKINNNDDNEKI
# Vero [7] = assay: Vero cell viability after compound exposure – synthesized analogs, set II, cytotoxicity control for West Nile virus antiviral project, SAR follow-up (AID 2402); assay type: functional; conditions: Chlorocebus sabaeus
# Vero [8] = assay: host cell viability loss, Vero E6 – synthesized analogs, cytotoxicity control for West Nile virus antiviral project, SAR follow-up (AID 2244); assay type: functional; conditions: Chlorocebus sabaeus
# [9] = loss of viability in HepG2 cells – cell-based, CellTiter-Glo, cherry-picked, cytotoxicity control for Shn3 inhibitor project, dose response (AID 624134); assay type: functional
# [10] = target: Disintegrin and metalloproteinase domain-containing protein 17 (Homo sapiens, UniProt P78536); assay: exosite inhibitors of ADAM17, dose response, biochemical (AID 743260)
# Chain of Disintegrin and metalloproteinase domain-containing protein 17 (P78536 whole entry, the tested form may be a part): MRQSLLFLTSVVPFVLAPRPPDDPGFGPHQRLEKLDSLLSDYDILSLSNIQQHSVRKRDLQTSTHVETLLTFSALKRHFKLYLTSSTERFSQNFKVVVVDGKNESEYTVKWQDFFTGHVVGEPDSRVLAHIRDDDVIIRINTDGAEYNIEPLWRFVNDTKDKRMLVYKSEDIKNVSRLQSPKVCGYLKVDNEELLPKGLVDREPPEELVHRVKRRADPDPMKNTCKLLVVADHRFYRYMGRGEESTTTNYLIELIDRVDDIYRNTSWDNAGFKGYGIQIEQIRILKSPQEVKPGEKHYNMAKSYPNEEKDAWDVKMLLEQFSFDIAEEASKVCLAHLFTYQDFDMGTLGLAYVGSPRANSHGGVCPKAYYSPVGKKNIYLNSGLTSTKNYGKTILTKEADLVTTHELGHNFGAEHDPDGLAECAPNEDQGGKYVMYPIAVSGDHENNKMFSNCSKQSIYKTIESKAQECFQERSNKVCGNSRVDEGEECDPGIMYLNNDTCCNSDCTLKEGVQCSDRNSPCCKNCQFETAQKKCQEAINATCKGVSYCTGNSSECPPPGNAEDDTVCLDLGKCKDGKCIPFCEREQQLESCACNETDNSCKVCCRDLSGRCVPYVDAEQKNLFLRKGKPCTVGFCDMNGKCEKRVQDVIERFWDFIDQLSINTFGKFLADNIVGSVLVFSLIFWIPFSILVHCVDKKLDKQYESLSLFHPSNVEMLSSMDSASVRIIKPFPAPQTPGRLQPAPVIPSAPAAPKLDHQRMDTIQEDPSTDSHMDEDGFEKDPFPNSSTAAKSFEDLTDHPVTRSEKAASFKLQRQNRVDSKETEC
# [11] = non-PhoP GFP expression and growth suppression – purified and synthesized compounds, set 2, counter-screen for PhoP regulon inhibitor project, dose response (AID 2834); assay type: functional
# [12] = non-specific 3'UTR reporter inhibition in Clone20-Shn3RL – cell-based, Renilla luciferase, cherry-picked, counter-screen for Shn3 inhibitor project, dose response (AID 624133); assay type: functional
# [13] = inhibition of ADAM10 peptide cleavage – biochemical, FRET peptide substrate, recombinant human ADAM10, selectivity assay for ADAM17 exosite inhibitor project, dose response (AID 743259);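 also: ADAM10 enzyme cleaving a FRET peptide substrate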
# [14] = reduction of Shn3 3'UTR-driven luciferase in osteoblasts – cell-based, Clone20 osteoblasts, firefly luciferase, cherry-picked, dose response (AID 624132); assay type: functional;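 also: firefly luciferase luminescence from reporter carrying the Shn3 3'UTR in osteoblasts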
# [15] = target: T4, DNA repair protein RAD52 homolog (Homo sapiens, UniProt P43351); assay type: functional, biochemical
# T4 sequence (P43351 whole entry): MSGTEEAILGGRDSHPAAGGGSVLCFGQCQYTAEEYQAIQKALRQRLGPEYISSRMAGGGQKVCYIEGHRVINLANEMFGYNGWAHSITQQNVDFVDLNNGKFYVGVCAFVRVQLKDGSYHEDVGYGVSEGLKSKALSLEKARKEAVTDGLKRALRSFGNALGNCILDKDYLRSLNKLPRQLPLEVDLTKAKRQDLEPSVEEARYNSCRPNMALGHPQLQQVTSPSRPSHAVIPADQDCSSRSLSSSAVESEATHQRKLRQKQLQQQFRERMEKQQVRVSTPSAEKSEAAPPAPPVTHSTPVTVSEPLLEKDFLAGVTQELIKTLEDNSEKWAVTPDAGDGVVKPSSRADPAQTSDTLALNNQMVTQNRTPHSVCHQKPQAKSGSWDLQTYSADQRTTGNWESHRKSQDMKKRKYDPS
# [16] = target: T5, Microphthalmia-associated transcription factor (Homo sapiens, UniProt O75030); assay: reducers of TRPM1 reporter luminescence, concentration series – cell-based, SK-MEL-5, cherry-picked, set 3, MITF inhibitor project, dose response (AID 493073); assay type: functional;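 also: SK-MEL-5 melanoma cells with luciferase driven by the MITF target TRPM1 promoter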
# T5 sequence (O75030 whole entry): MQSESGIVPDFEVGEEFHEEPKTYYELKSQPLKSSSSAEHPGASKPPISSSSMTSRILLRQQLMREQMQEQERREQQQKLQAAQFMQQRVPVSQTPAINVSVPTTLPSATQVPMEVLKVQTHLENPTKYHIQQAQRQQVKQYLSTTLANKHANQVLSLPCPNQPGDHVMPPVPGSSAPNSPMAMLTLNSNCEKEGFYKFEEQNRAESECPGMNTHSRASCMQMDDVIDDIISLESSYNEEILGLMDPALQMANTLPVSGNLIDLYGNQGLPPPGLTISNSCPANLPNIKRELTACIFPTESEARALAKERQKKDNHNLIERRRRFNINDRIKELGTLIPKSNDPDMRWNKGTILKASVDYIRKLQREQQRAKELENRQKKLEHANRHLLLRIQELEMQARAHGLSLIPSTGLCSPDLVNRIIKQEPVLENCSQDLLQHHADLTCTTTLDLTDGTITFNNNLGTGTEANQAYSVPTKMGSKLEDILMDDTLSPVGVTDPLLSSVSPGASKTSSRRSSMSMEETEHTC
# [17] = target: G-protein coupled receptor 35 (Homo sapiens, UniProt Q9HC97); assay: inhibition of zaprinast-stimulated GPR35 beta-arrestin translocation – imaging, U2OS, beta-arrestin-GFP, zaprinast agonist, primary screen (AID 2058); assay type: functional;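 also: antagonist potency meaning inhibition of agonist-induced arrestin redistribution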
# Chain of G-protein coupled receptor 35 (Q9HC97 whole entry): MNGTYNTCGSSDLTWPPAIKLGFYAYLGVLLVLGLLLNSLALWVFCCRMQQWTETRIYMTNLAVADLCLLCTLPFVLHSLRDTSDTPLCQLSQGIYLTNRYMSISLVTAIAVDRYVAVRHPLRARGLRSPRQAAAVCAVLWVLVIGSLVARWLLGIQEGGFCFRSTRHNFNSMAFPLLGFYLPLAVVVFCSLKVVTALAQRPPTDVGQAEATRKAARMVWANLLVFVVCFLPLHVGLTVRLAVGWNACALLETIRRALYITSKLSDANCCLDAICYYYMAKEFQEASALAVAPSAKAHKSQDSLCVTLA
# [18] = target: Acyl-homoserine lactone acylase PvdQ (Pseudomonas aeruginosa (strain LESB58), UniProt Q9I194); assay: PvdQ acylase enzyme activity blockers – biochemical, fluorescence, plate reader and imaging, cherry-picks, dose response (AID 493231)
# Chain of Acyl-homoserine lactone acylase PvdQ (Q9I194 24-193 limits assumed): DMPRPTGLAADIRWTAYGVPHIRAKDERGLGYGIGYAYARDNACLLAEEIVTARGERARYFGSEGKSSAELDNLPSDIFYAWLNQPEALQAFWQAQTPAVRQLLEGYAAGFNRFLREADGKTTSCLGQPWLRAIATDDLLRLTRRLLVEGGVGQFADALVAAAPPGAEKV
# Chain of Acyl-homoserine lactone acylase PvdQ (Q9I194 217-762 limits assumed): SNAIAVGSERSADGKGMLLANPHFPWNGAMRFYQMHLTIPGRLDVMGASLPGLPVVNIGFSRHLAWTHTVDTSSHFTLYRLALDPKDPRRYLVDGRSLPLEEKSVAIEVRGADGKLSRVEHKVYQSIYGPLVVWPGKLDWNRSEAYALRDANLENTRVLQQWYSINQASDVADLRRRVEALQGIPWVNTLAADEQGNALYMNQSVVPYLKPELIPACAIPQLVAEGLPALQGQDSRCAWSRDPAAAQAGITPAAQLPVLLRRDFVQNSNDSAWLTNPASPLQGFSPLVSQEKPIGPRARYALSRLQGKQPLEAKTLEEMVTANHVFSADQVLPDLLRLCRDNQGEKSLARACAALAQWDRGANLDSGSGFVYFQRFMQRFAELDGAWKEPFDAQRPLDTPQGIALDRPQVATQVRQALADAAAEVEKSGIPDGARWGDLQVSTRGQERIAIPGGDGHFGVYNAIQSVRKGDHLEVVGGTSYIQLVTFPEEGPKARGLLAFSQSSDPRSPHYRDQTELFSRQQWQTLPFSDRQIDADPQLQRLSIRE
# Chaperone protein dnaK = Chaperone protein dnaK (Escherichia coli, UniProt C3TRK2); assay: E. coli DnaK binders, calorimetric Kd – biophysical, isothermal titration calorimetry, beta-domain, full-length DnaK, orthogonal assay for DnaK modulator project, SAR follow-up (AID 1495)
# Mu-type opioid receptor = Mu-type opioid receptor (Homo sapiens, UniProt P35372); assay: HTS Image-Based Screen for Agonists of the MOR Receptor. [Related pubchem assays (depositor defined):AID1777, AID1785, AID1786, AID2133]; assay type: functional;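 also: imaging of beta-arrestin GFP recruitment into spots after receptor activation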
# Chain of Mu-type opioid receptor (P35372 whole entry): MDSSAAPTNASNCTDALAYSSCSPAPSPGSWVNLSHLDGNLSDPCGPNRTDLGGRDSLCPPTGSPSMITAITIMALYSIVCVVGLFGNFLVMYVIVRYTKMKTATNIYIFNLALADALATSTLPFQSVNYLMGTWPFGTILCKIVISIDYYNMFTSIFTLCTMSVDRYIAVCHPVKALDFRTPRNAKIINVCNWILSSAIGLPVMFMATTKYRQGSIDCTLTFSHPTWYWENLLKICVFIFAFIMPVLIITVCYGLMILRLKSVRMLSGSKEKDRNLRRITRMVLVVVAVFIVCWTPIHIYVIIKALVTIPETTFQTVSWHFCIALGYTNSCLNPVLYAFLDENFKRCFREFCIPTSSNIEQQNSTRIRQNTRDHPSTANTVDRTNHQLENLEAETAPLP
# [19] = target: T6, Delta-type opioid receptor (Homo sapiens, UniProt P41143); assay: HTS Image-Based Screen for Antagonists of the DOR Receptor. [Related pubchem assays (depositor defined):AID1777, AID1785, AID1786, AID2133]; assay type: functional
# T6 sequence (P41143 whole entry): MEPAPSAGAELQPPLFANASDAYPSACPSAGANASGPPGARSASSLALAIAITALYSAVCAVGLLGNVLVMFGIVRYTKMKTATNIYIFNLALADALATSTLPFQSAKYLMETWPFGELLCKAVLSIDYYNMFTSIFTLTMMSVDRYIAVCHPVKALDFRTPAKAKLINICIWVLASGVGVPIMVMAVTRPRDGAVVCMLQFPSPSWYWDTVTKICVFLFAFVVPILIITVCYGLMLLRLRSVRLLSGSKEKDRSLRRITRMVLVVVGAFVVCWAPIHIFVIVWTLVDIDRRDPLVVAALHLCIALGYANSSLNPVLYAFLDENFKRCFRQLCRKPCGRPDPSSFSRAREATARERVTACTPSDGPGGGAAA
# [20] = target: T7, Kappa-type opioid receptor (Homo sapiens, UniProt P41145); assay type: functional
# T7 sequence (P41145 whole entry): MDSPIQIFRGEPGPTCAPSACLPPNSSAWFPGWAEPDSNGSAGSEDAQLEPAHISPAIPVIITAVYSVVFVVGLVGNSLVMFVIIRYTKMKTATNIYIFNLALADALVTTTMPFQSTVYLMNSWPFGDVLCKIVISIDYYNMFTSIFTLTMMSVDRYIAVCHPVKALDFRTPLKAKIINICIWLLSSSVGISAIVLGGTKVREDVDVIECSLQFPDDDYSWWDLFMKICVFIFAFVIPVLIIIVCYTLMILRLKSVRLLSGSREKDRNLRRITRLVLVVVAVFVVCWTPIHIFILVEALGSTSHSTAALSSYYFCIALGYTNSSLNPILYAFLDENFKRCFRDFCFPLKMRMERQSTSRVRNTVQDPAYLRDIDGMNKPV
# [21] = target: T7, Kappa-type opioid receptor; assay type: functional; remark: listed apart in the source
# [22] = target: T6, Delta-type opioid receptor; assay: HTS Image-Based Screen for Agonists of the DOR Receptor. [Related pubchem assays (depositor defined):AID1777, AID1786, AID2133]; assay type: functional
# [23] = target: Eukaryotic translation initiation factor 4E (Mus musculus, UniProt P63073); assay: blockers of eIF4G binding by eIF4E – biochemical, TR-FRET, dose response (AID 855); assay type: functional;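 also: potency for disrupting eIF4E binding to eIF4GI seen as loss of FRET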
# Chain of Eukaryotic translation initiation factor 4E (P63073 whole entry): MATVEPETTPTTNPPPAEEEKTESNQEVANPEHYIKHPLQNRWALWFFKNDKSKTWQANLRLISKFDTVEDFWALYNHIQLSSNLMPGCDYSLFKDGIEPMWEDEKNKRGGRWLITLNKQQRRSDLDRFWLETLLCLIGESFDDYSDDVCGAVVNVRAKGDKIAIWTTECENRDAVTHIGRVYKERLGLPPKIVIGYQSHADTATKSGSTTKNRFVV
# [24] = target: Voltage-gated N-type calcium channel alpha-1B subunit/Amyloid beta A4 precursor protein-binding family A member 1 (Homo sapiens, UniProt Q00975+Q02410); assay: disruptors of Mint-PDZ/N-type channel peptide interaction – biochemical, HTRF, set 2, SAR follow-up (AID 434980); assay type: functional
# [25] = Luminescence Cell Based Dose Confirmation HTS to Identify Activators of 5'UTR Stem-Loop Driven Alpha-Synuclein mRNA Translation in H4 Neuroglioblastoma Cells. [Related pubchem assays (depositor defined):AID1813, AID1829]; assay type: functional; conditions: Homo sapiens
# [26] = target: T8, Small ubiquitin-related modifier 1 (Homo sapiens, UniProt P63165); assay: SUMO1 protein-protein binding blockers, potency – biochemical, FRET, dose response (AID 624383); assay type: functional; conditions: read-out: IC50_Mean
# T8 sequence (P63165 whole entry): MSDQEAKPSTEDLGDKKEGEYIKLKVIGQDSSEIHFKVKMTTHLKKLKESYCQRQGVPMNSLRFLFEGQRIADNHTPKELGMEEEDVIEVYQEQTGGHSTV
# [27] = target: T8, Small ubiquitin-related modifier 1; assay: SUMO1 protein interaction blockers, potency – biochemical, fluorescence polarization, uHTS hits, dose response (AID 624382); assay type: functional; conditions: read-out: IC50_Mean
# [28] = target: Melanin-concentrating hormone receptor 1 (Homo sapiens, UniProt Q99705); assay: Late-stage fluorescence-based counterscreen for antagonists of the G-protein coupled receptor 7 (GPR7): cell-based dose response assay to identify antagonists of the melanin-concentrating hormone receptor 1 (MCHR1). [Related pubchem assays (depositor defined):AID1861, AID1880, AID1952, AID2148, AID2251, AID2257, AID485339]; assay type: functional;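 also: stimulated with 30 nM MCH peptide agonist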
# Chain of Melanin-concentrating hormone receptor 1 (Q99705 whole entry): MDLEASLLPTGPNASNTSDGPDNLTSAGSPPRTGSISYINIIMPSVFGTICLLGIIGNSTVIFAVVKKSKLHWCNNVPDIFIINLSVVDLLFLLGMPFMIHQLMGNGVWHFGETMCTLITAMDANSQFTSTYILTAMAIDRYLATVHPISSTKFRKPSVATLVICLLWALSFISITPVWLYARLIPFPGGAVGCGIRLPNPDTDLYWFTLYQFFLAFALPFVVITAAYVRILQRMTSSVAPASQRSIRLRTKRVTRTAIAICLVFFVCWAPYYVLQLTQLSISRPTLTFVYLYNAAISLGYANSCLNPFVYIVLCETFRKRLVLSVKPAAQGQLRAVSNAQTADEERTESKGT
# Chain of Envelope glycoprotein gp160 (Q6QLK5 whole entry, the tested form may be a part): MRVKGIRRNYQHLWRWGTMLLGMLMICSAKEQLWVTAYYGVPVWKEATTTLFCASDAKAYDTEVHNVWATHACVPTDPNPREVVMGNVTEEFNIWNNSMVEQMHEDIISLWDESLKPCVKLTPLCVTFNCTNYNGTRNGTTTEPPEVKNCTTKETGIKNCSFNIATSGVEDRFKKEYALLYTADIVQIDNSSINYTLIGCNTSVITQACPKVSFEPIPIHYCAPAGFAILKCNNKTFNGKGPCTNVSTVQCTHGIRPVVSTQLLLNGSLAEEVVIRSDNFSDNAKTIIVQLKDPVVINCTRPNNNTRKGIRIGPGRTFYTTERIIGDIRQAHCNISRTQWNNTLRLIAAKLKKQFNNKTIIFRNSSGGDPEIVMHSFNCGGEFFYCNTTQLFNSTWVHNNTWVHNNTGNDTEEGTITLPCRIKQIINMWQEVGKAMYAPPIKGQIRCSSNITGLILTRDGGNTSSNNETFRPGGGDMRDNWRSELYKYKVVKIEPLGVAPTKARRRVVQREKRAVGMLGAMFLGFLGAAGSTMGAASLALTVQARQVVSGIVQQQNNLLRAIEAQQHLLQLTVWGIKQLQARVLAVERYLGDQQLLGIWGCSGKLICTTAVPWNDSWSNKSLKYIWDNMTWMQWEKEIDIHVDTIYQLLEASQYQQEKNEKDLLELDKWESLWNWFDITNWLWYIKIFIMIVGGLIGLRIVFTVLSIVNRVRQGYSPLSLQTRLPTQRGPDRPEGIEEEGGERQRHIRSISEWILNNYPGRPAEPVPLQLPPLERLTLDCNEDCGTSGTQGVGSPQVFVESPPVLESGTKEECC
smiles,measurement,setting,value
O=C(O)C[C@@H]1C(=O)O[C@@H]2C(COC(=O)c3cc(O)c(O)c(O)c3)O[C@@H](OC(=O)c3cc(O)c(O)c(O)c3)[C@@H](OC(=O)c3cc(O)c(O)c4c3[C@H]1[C@H](O)C(=O)O4)[C@H]2OC(=O)c1cc(O)c(O)c(O)c1 (stereo partly drawn),IC50,[1],11.2 µM (active)
same,IC50,[2],1.52 µM (active)
same,CC50,[3],> 40 µM (active)
CCCc1cc(-c2[nH]ncc2-c2ccc(C(=O)OCC)o2)c(O)cc1O,AC50,[4],10 µM (active)
same,IC50,Galanin receptor type 3,12.8 µM (inactive)
same,EC50,cells,> 29.9 µM (inactive)
same,EC50,[5],> 35.4 µM (not active)
same,EC50,HEK293,> 35.4 µM (not active)
same,EC50,[6],18.5 µM (not active)
CCCN(C(=O)c1ccccc1Cl)c1nc(-c2ccc(OC)cc2)cs1,CC50,Vero [7],63.2 µM (active)
same,CC50,Vero [8],> 40 µM (active)
S=C(NCc1ccc(Cl)cc1)Nc1ccncc1,AC50,[9],22.1 µM (active)
same,IC50,[10],> 69.6 µM (inactive)
same,IC50,[11],> 125 µM (active)
same,AC50,[12],> 70 µM (inactive)
same,IC50,[13],> 69.6 µM (inactive)
same,AC50,[14],1.5 µM (active)
CN(C)CCCNC(=O)/C(=C\c1ccc(-c2ccc(Br)cc2)o1)NC(=O)c1ccccc1,AC50,[15],15.6 µM (active)
same,AC50,[16],7.51 µM (active)
same,IC50,[17],> 32 µM (inactive)
CC1SCC(NC(=O)c2cccc(Cl)c2)CS1 (stereo not drawn),AC50,[18],> 100 µM (inactive)
O=C(Nc1ccc2[nH]ccc2c1)c1cccs1,Kd,Chaperone protein dnaK,12.7 µM (active)
Cc1ccc(C)c(N2CCN(C(=O)C(Cc3ccccc3)n3cccc3)CC2)c1 (stereo not drawn),EC50,Mu-type opioid receptor,> 32 µM (inactive)
same,IC50,[19],> 32 µM (inactive)
same,EC50,[20],4.27 µM
same,EC50,[21],10.5 µM
same,EC50,[22],> 32 µM (inactive)
same,IC50,[23],> 64 µM (inactive)
O=C(Nc1ncc(-c2ccccc2)o1)c1cc(-c2ccco2)nc2ccccc12,IC50,[24],> 56.8 µM (inactive)
COc1ccc(Cl)cc1Nc1nnc(-c2ccncc2)s1,EC50,[25],73.5 µM (active)
same,IC50,[26],4.83 µM (active)
same,IC50,[27],> 66.6 µM (inactive)
COc1ccc(Oc2c(Br)cnn(-c3ccc(C(C)C)cc3)c2=O)cc1,IC50,[28],0.72 µM (active)
